Reference: publication PMC6244841, “Enhanced Absorption and Growth Inhibition with Amino Acid Monoester Prodrugs of Floxuridine by Targeting hPEPT1 Transporters” (Molecules, 2008)
Marks after values point to notes of the source that are not given here.

Columns and labels:
MDCK cells = assay: Cell proliferation assay (XTT) in MDCK cells; assay type: cell-based; details: Canis lupus familiaris, 2 hours exposure, 24 hours recovery, mean ± S.D.
Method: (§1) Cell proliferation studies were conducted with MDCK cells and MDCK cells that express hPEPT1 (MDCK/hPEPT1). The cells were seeded into 96-well plates at 125,000 cells per well and allowed to attach/grow for 24 hours before drug solutions were added. The culture medium (DMEM + 10% fetal bovine serum) was removed and the cells were gently washed once with sterile pH 6.0 uptake buffer. Floxuridine and floxuridine prodrugs were 2-fold serially diluted in pH 6.0 uptake buffer from 4 to 0.25 mmol/L. Buffer alone was used as 100% viability control. The wash buffer was removed and 30 µL drug solution per well was added and incubated at 37°C for 2 hours in the cell incubator. After this time, the drug solutions were removed and the cells were again gently washed twice with sterile uptake buffer. The culture medium was then added to each well after washing. The cells were allowed to recover for 24 hours before evaluating cell viability via 2,3-bis[2-methoxy-4-nitro-5-sulfophenyl]-2H-tetrazolium-5-carboxanilide inner salt (XTT) assays. A mixture (30 µL) containing XTT (1 mg/mL) in sterile DMEM without phenol red and phenazine methosulfate (N-methyldibenzopyrazine methyl sulfate in sterile PBS, 0.383 mg/mL) reagents were added to the cells and incubated at 37°C for 1 hour, after which the absorbance at 450 nm was read. The concentrations required to inhibit cell growth by 50% (GI50) were calculated using GraphPad Prism version 3.0 by nonlinear data fitting.

hPEPT1 [1] = target: T1, hPEPT1 (Homo sapiens, UniProt P46059); assay: [3H]Gly-Sar uptake inhibition in AsPC-1 cells; assay type: cell-based; details: for IC50: 10 µmol/L Gly-Sar, 30 minutes, mean ± S.D., read-out: IC50 Value, inhibition of Gly-Sar uptake, AsPC-1 cell
T1 sequence (P46059 1-708): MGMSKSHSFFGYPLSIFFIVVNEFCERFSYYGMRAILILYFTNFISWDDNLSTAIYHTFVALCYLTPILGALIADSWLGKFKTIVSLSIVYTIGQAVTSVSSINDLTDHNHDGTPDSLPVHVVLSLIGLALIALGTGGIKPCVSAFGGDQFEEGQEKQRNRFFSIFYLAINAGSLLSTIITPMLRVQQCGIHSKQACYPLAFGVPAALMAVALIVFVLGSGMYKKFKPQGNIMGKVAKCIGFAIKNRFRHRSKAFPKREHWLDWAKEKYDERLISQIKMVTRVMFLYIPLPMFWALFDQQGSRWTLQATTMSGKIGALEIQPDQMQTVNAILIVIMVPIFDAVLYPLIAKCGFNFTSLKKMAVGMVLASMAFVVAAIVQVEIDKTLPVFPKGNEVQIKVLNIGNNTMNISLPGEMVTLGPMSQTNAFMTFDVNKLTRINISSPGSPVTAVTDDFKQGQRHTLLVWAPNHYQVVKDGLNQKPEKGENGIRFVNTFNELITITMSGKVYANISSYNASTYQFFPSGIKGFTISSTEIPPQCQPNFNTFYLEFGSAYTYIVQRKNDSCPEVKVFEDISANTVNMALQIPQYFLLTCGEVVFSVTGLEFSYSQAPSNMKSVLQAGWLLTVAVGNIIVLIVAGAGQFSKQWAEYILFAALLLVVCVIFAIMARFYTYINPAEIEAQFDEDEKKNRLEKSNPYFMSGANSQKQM
Method: (§2) Caco-2 cells at nine days post-seeding, and AsPC-1 cells at four days post-seeding were incubated with 10 µmol/L Gly-Sar (9.98 µmol/L Gly-Sar and 0.02 µmol/L [3H]Gly-Sar) along with various prodrug concentrations (5–0.05 mmol/L) for 30 minutes. The cells were washed three times with ice-cold PBS and solubilized with 10 mL of scintillation cocktail (ScintiVerse®, Fisher Scientific, St.Louis, MO, USA). The amount of cell-associated radioactivity was determined by scintillation counting (Beckman LS-9000, Beckman Instruments, Fullerton, CA, USA). The half maximal inhibitory concentration (IC50) values were determined using nonlinear data fitting (GraphPad Prism version 3.0).

hPEPT1 [2] = target: T1, hPEPT1; assay: [3H]Gly-Sar uptake inhibition in Caco-2 cells; assay type: cell-based; details: for IC50: 10 µmol/L Gly-Sar, 30 minutes, mean ± S.D., read-out: IC50 Value, inhibition of Gly-Sar uptake, Caco-2 cell
Method: as §2

[3] = Enzymatic stability in Caco-2 cell homogenates; assay type: in vitro ADME; details: for half-life: human, Caco-2, pH 7.4, 37°C, protein 500 μg/mL, mean ± S.D., read-out: Half Life, Homogenates from Caco-2 cells
Method: (§3) The experiments concerning prodrug stability were performed at 37°C in pH 7.4 phosphate buffers and Caco-2, AsPC-1, and MDCK cell homogenates.
(§4) Enzymatic Stability. Confluent Caco-2 cells, AsPC-1 cells, and MDCK cells were rinsed twice with saline. The cells were washed with pH 7.4 phosphate buffer (5 mL, 10 mmol/L), lysed by ultrasonication (Micro ultrasonic cell disrupter Model KT40, Kontes, Vineland, NJ, USA), and pelleted by centrifugation for 5 minutes at 1,000 x g. Protein amount was quantified with the Bio-Rad (Hercules, CA, USA) DC Protein Assay using bovine serum albumin as a standard. The amount of protein was adjusted to 500 μg/mL and hydrolysis reactions were carried out in 96-well plates (Corning). Caco-2, AsPC-1, and MDCK cell suspensions (250 µL) were placed in triplicate wells, the reactions were started with the addition of substrate, and cells were incubated at 37°C for 120 minutes. At the desired time point, sample aliquots (35 µL) were removed and added to acetonitrile (ACN, 150 µL) with 0.1% TFA. The mixtures were filtered with a 0.45 µm filters at 1,000 x g for 10 minutes at 4°C. The filtrate was then analyzed via reverse-phase HPLC.
(§5) The initial rates of hydrolysis were used to obtain the apparent first-order rate constants and to calculate the half-lives. The apparent first-order degradation rate constants of various floxuridine prodrugs at 37°C were determined by plotting the logarithm of prodrug remaining as a function of time. The slopes of these plots are related to the rate constant, k, and given by
(§6) k = 2.303 × slope (log C vs. time) (1)
(§7) The degradation half-lives were then calculated by the equation

[4] = Enzymatic stability in MDCK cell homogenates; assay type: in vitro ADME; details: dog, pH 7.4, 37°C, protein 500 μg/mL, mean ± S.D., read-out: Half Life, Homogenates from MDCK cells
Method: as §3, §4, §5, §6, §7

[5] = Chemical stability (nonenzymatic hydrolysis) in pH 7.4 phosphate buffer; assay type: physicochemical; details: 37°C, mean ± S.D.
Method: as §3
Chemical Stability. The nonenzymatic hydrolysis of the prodrugs was determined as described above, except that each well contained pH 7.4 phosphate buffers (10 mmol/L) instead of cell homogenate.
as §5, §6, §7

[6] = Enzymatic stability in AsPC-1 cell homogenates; assay type: in vitro ADME; details: for half-life: human, AsPC-1 cell homogenate, pH 7.4, 37°C, protein 500 μg/mL, mean ± S.D., read-out: Half Life, Homogenates from AsPC-1 cells
Method: as §3, §4, §5, §6, §7

MDCK/hPEPT1 cells = assay: Cell proliferation assay (XTT) in MDCK/hPEPT1 cells; assay type: cell-based; details: for GI50: Canis lupus familiaris, MDCK, read-out: GI50, MDCK/hPEPT1
Method: as §1

[7] = Caco-2 permeability study (apical-to-basolateral); details: relative to 5-FU
[8] = parameters: method as in PMID 16132363; details: pH 7.4 phosphate buffer, 37°C, mean ± S.D.; ref [40]; cited from earlier work
[9] = relative to 5'-O-L-valyl-floxuridine

SMILES | GI50 (MDCK cells) | IC50 (hPEPT1 [1]) | IC50 (hPEPT1 [2]) | half-life [3] | half-life [4] | half-life [5] | half-life [6] | GI50 (MDCK/hPEPT1 cells) | Enhancement Factor (ratio of GI50 in MDCK and MDCK/hPEPT1 cells) (MDCK/hPEPT1 cells) | other results
CC(C)C[C@H](N)C(=O)OC[C@H]1O[C@@H](n2cc(F)c(=O)[nH]c2=O)C[C@@H]1O [5'-O-L-leucyl-floxuridine] | 23.5 ± 3 µM | 2600 ± 200 µM | 2000 ± 300 µM | 4.8 ± 0.2 min | 9.2 ± 1.1 min | 77.3 ± 1.2 min | 2 ± 0.1 min | 2.3 ± 1 µM | 10.09 | fold more quickly hydrolyzed in AsPC-1 cell homogenates than in Caco-2 cell homogenates ([6]; AsPC-1 vs Caco-2 homogenates): 2.4 fold; fold more quickly hydrolyzed in AsPC-1 cell homogenates than in MDCK cell homogenates ([6]; AsPC-1 vs MDCK homogenates): 4.7 fold; Enhancement Factor (ratio of GI50 in MDCK and MDCK/hPEPT1 cells) (MDCK/hPEPT1 cells; listed as 5ʹ-O-L-leucyl-floxuridine): 10
CC(C)[C@H](N)C(=O)OC[C@H]1O[C@@H](n2cc(F)c(=O)[nH]c2=O)C[C@@H]1O [5'-O-L-valyl-floxuridine] | 127 ± 7.7 µM | 2900 ± 400 µM | 1000 ± 100 µM | 9.4 ± 0.6 min | 74.7 ± 5.3 min | 304 ± 17.8 min | 18.7 ± 6.7 min | 21.1 ± 4.2 µM | 5.91 | fold shorter half-life in Caco-2 cell homogenates than in AsPC-1 cell homogenates ([3]; Caco-2 vs AsPC-1 cell homogenates): 2 fold; Enhancement Factor (ratio of GI50 in MDCK and MDCK/hPEPT1 cells) (MDCK/hPEPT1 cells; listed as 5ʹ-O-L-valyl-floxuridine): about 6
O=c1[nH]c(=O)n([C@H]2C[C@H](O)[C@@H](CO)O2)cc1F [Floxuridine, 5-fluoro-2'-deoxyuridine] | – | 6300 ± 2300 µM | 7300 ± 1600 µM | 5.7 ± 0.3 min | 68.9 ± 12.8 min | – | 6.4 ± 3.2 min | – | 1.00 | fold higher Caco-2 membrane permeability than 5-FU [7]: 12 fold
CC(C)[C@@H](N)C(=O)OC[C@H]1O[C@@H](n2cc(F)c(=O)[nH]c2=O)C[C@@H]1O [5'-O-D-valyl-floxuridine] | 88.5 ± 2.6 µM | 4800 ± 1300 µM | 2600 ± 100 µM | 343 ± 120 min | 312 ± 45.4 min | 345 ± 10.2 min | 291 ± 48.9 min | 71 ± 2.7 µM | 1.25 | fold less inhibition of the transporters than 5'-O-L-valyl-floxuridine, AsPC-1 cells (hPEPT1 [1]; [9]): 1.6 fold; fold less inhibition of the transporters than 5'-O-L-valyl-floxuridine, Caco-2 cells (hPEPT1 [2]; [9]): 2.5 fold; improvement of cell growth inhibition in MDCK/hPEPT1 cells (MDCK/hPEPT1 cells; MDCK/hPEPT1 vs MDCK): 25%
CC[C@H](C)[C@H](N)C(=O)OC[C@H]1O[C@@H](n2cc(F)c(=O)[nH]c2=O)C[C@@H]1O [5'-O-L-isoleucyl-floxuridine] | 186 ± 4.2 µM | 4100 ± 1800 µM | 700 µM | 192 ± 31.8 min | 245 ± 18.3 min | – | 198 ± 34.1 min | 10.3 ± 2.9 µM | 18.04 | Enhancement Factor (ratio of GI50 in MDCK and MDCK/hPEPT1 cells) (MDCK/hPEPT1 cells; listed as 5ʹ-O-L-isoleucyl-floxuridine): 18; Half Life, Buffer pH 7.4 [8]: 323.5 ± 1.5^a min
N[C@@H](Cc1ccccc1)C(=O)OC[C@H]1O[C@@H](n2cc(F)c(=O)[nH]c2=O)C[C@@H]1O [5'-O-L-phenylalanyl-floxuridine] | 41.3 ± 3.9 µM | 2000 ± 100 µM | 2100 ± 100 µM | 11.1 ± 9.9 min | 6 ± 0.6 min | 222 ± 56.7 min | 11.8 ± 1.7 min | 4.7 ± 2.4 µM | 8.80 | fold less stability in cell homogenates compared to pH 7.4 phosphate buffers ([3]; cell homogenates vs pH 7.4 phosphate buffers): 20 fold
NCC(=O)OC[C@H]1O[C@@H](n2cc(F)c(=O)[nH]c2=O)C[C@@H]1O [5'-O-L-glycyl-floxuridine] | – | 2700 ± 500 µM | 2300 ± 600 µM | 24.1 ± 2 min | 11.2 ± 2 min | 85.5 ± 3.2 min | 27.6 ± 5.8 min | – | – | –
